# Tests used:
# Staphylococcus aureus [1] = experiment: Antimicrobial activity against methicillin-resistant Staphylococcus aureus MW2 assessed as reduction in microbial growth after 18 hrs by broth microdilution method; assay type: functional; settings: MW2, 18 h
# Enterococcus faecium [2] = experiment: Antimicrobial activity against Enterococcus faecium ATCC E007 assessed as reduction in microbial growth after 18 hrs by broth microdilution method; assay type: functional; settings: ATCC E007, 18 h
# Staphylococcus aureus [3] = experiment: Antimicrobial activity against Staphylococcus aureus assessed as zone of inhibition at 1000 to 10000 ppm after 48 hrs; assay type: functional
# Helicobacter pylori = experiment: Antimicrobial activity against Helicobacter pylori assessed as zone of inhibition; assay type: functional
# Escherichia coli [4] = experiment: Antimicrobial activity against Escherichia coli after 24 hrs by agar well diffusion assay; assay type: functional
# Staphylococcus aureus [5] = experiment: Antimicrobial activity against methicillin-resistant Staphylococcus aureus CCARM 3167 assessed as reduction in microbial growth by serial dilution method; assay type: functional
# Staphylococcus aureus [6] = experiment: Antimicrobial activity against methicillin-resistant Staphylococcus aureus CCARM 3506 assessed as reduction in microbial growth by serial dilution method; assay type: functional
# Staphylococcus aureus [7] = experiment: Antimicrobial activity against quinolone-resistant Staphylococcus aureus CCARM 3505 assessed as reduction in microbial growth by serial dilution method; assay type: functional
# Staphylococcus aureus [8] = experiment: Antimicrobial activity against quinolone-resistant Staphylococcus aureus CCARM 3519 assessed as reduction in microbial growth by serial dilution method; assay type: functional
# HepG2 = experiment: Cytotoxicity against human HepG2 cells; assay type: cell-based
# Proteus mirabilis = experiment: Antimicrobial activity against Proteus mirabilis assessed as zone of inhibition after 18 hrs by disk diffusion method; assay type: functional
# Escherichia coli [9] = experiment: Antimicrobial activity against Escherichia coli assessed as zone of inhibition after 18 hrs by disk diffusion method; assay type: functional
# Staphylococcus aureus [10] = experiment: Antimicrobial activity against Staphylococcus aureus NCIM-2079 assessed as reduction in microbial growth after 24 hrs by CLSI based broth dilution method; assay type: functional; settings: NCIM-2079, 24 h
# Proteus vulgaris = experiment: Antimicrobial activity against Proteus vulgaris NCIM-2027 assessed as reduction in microbial growth after 24 hrs by CLSI based broth dilution method; assay type: functional; settings: NCIM-2027, 24 h
# Bacillus cereus [11] = experiment: Antimicrobial activity against Bacillus cereus NCIM-2156 assessed as reduction in microbial growth after 24 hrs by CLSI based broth dilution method; assay type: functional; settings: NCIM-2156, 24 h
# Bacillus subtilis = experiment: Antimicrobial activity against Bacillus subtilis NCIM-2063 assessed as reduction in microbial growth after 24 hrs by CLSI based broth dilution method; assay type: functional; settings: NCIM-2063, 24 h
# Escherichia coli [12] = experiment: Antimicrobial activity against Escherichia coli NCIM-2065 assessed as reduction in microbial growth after 24 hrs by CLSI based broth dilution method; assay type: functional; settings: NCIM-2065, 24 h
# Bacillus cereus [13] = experiment: Antimicrobial activity against Bacillus cereus MTCC 430 assessed as reduction in microbial growth after 24 hrs by broth dilution method; assay type: functional; settings: MTCC 430, 24 h
# Candida albicans = experiment: Antifungal activity against Candida albicans MTCC 183 assessed as reduction in microbial growth after 48 hrs by broth dilution method; assay type: functional; settings: MTCC 183, 48 h
# Pseudomonas aeruginosa [14] = experiment: Antimicrobial activity against Pseudomonas aeruginosa MTCC 741 assessed as reduction in microbial growth after 24 hrs by broth dilution method; assay type: functional; settings: MTCC 741, 24 h
# Aspergillus niger = experiment: Antifungal activity against Aspergillus niger MTCC 282 assessed as reduction in microbial growth after 48 hrs by broth dilution method; assay type: functional; settings: MTCC 282, 48 h
# Lacticaseibacillus casei = experiment: Antibacterial activity against Lactobacillus casei NCIM-2651 assessed as reduction in microbial growth incubated for 24 hrs by broth dilution method; assay type: functional; settings: NCIM-2651, 24 h
# Bacillus cereus [15] = experiment: Antibacterial activity against Bacillus cereus NCIM-2458 assessed as reduction in microbial growth incubated for 24 hrs by broth dilution method; assay type: functional; settings: NCIM-2458, 24 h
# Aspergillus clavatus = experiment: Antifungal activity against Aspergillus clavatus MTCC 1323 assessed as reduction in microbial growth after 48 hrs by broth dilution method; assay type: functional; settings: MTCC 1323, 48 h
# Pseudomonas aeruginosa [16] = experiment: Antimicrobial activity against Pseudomonas aeruginosa […] assessed as zone of inhibition at 10 mg/ml by Kirby-Bauer disk diffusion method; assay type: functional; settings: read-out: IZ
# Micrococcus luteus = experiment: Antimicrobial activity against Micrococcus luteus ATCC 10240 assessed as zone of inhibition at 10 mg/ml by Kirby-Bauer disk diffusion method; assay type: functional; settings: read-out: IZ
# Staphylococcus aureus [17] = experiment: Antimicrobial activity against Staphylococcus aureus MTCC 96 assessed as reduction in microbial growth after 24 hrs by broth dilution method; assay type: functional; settings: MTCC 96, 24 h
# Staphylococcus aureus [18] = experiment: Antimicrobial activity against methicillin-resistant Staphylococcus aureus CCARM 3089 assessed as reduction in microbial growth incubated for 18 to 24 hrs by two-fold serial dilution method; assay type: functional
# Staphylococcus aureus [19] = experiment: Antimicrobial activity against methicillin-resistant Staphylococcus aureus CCARM 3090 assessed as reduction in microbial growth incubated for 18 to 24 hrs by two-fold serial dilution method; assay type: functional
# Staphylococcus aureus [20] = experiment: Antimicrobial activity against methicillin-resistant Staphylococcus aureus CCARM 3095 assessed as reduction in microbial growth incubated for 18 to 24 hrs by two-fold serial dilution method; assay type: functional
# Pseudomonas aeruginosa [21] = experiment: Antimicrobial activity against multi drug-resistant Pseudomonas aeruginosa CCARM 2095 assessed as reduction in microbial growth incubated for 18 to 24 hrs by two-fold serial dilution method; assay type: functional
# Pseudomonas aeruginosa [22] = experiment: Antimicrobial activity against multi drug-resistant Pseudomonas aeruginosa CCARM 2109 assessed as reduction in microbial growth incubated for 18 to 24 hrs by two-fold serial dilution method; assay type: functional
# Enterococcus faecium [23] = experiment: Antimicrobial activity against vancomycin-resistant Enterococcus faecium ATCC 51559 assessed as reduction in microbial growth incubated for 18 to 24 hrs by two-fold serial dilution method; assay type: functional
smiles,measurement,setting,value
CC(C)(C)Nc1nc(NN)nc(NC(C)(C)C)n1,MIC,Staphylococcus aureus [1],8 µg/mL
same,MIC,Enterococcus faecium [2],8 µg/mL
Cc1c(C(=O)NNc2ccccc2)nnc2c3c(-c4ccccc4)c(-c4ccccc4)nnc3nn12,inhibition zone (IZ),Staphylococcus aureus [3],4 mm
CC(=O)c1nnc2c3c(-c4ccccc4)c(-c4ccccc4)nnc3nn2c1C,inhibition zone (IZ),Staphylococcus aureus [3],44 mm
Nc1nc(-n2c(-c3ccc([N+](=O)[O-])cc3)nc3ccccc3c2=O)nnc1-c1ccccc1,MIC,Helicobacter pylori,25 µg/mL
Clc1nc2nc(n1)Oc1ccc3ccccc3c1Cc1c(ccc3ccccc13)Oc1nc(Cl)nc(n1)OCc1cccc(n1)CO2,MIC,Escherichia coli [4],50 µg/mL
NC1=NC(c2ccc3cc(OCc4ccc(Cl)cc4Cl)ccc3c2)N=C(N2CCOCC2)N1 (stereo not given),MIC,Staphylococcus aureus [5],2.1 µM
same,MIC,Staphylococcus aureus [6],2.1 µM
same,MIC,Staphylococcus aureus [7],2.1 µM
same,MIC,Staphylococcus aureus [8],2.1 µM
same,IC50,HepG2,34.3 µM
O=C(CN/N=C/Cc1ccccn1)CSc1nnc2c3ccccc3n(CC(=O)N/N=C/c3ccccn3)c2n1,inhibition zone (IZ),Proteus mirabilis,24 mm
same,inhibition zone (IZ),Escherichia coli [9],24 mm
CCOc1ccc(/C=N/NC(=O)Cn2c3ccccc3c3nnc(SCC(=O)CN/N=C/Cc4ccc(OCC)cc4)nc32)cc1,inhibition zone (IZ),Proteus mirabilis,22 mm
same,inhibition zone (IZ),Escherichia coli [9],22 mm
O=C1CSC(c2ccc([N+](=O)[O-])cc2)N1c1nc(Nc2ccc([N+](=O)[O-])cc2)nc(Nc2ccc([N+](=O)[O-])cc2)n1 (stereo not given),MIC,Staphylococcus aureus [10],1.95 to 15.6 µg/mL
same,MIC,Proteus vulgaris,1.95 to 15.6 µg/mL
same,MIC,Bacillus cereus [11],1.95 to 15.6 µg/mL
same,MIC,Bacillus subtilis,1.95 to 15.6 µg/mL
same,MIC,Escherichia coli [12],1.95 to 15.6 µg/mL
COc1nc(Sc2cccc(Cl)c2)nc(-c2ccc(C#N)cc2)n1,MIC,Bacillus cereus [13],6.25 µg/mL
same,MIC,Candida albicans,3.12 µg/mL
COc1nc(Sc2cccc(F)c2)nc(-c2ccc(C#N)cc2)n1,MIC,Pseudomonas aeruginosa [14],3.12 µg/mL
same,MIC,Aspergillus niger,3.12 µg/mL
Nc1nc(Nc2nc(-c3ccc(Cl)c(Cl)c3)cs2)nc(Sc2ccccc2)n1,MIC,Lacticaseibacillus casei,3.12 µg/mL
same,MIC,Bacillus cereus [15],3.12 µg/mL
COc1nc(Sc2ccc(Cl)cc2)nc(-c2ccc(C#N)cc2)n1,MIC,Aspergillus clavatus,3.12 µg/mL
Cc1cc(C)n(-c2nc(NCc3ccccc3)nc(N3CCCCC3)n2)n1,zone of inhibition at 10000 µg/mL,Pseudomonas aeruginosa [16],19 mm
same,zone of inhibition at 10000 µg/mL,Micrococcus luteus,22 mm
O=C1CSC(c2ccccc2[N+](=O)[O-])N1c1nc(Nc2ccccc2[N+](=O)[O-])nc(Nc2ccccc2[N+](=O)[O-])n1 (stereo not given),MIC,Staphylococcus aureus [10],1.95 to 15.6 µg/mL
same,MIC,Proteus vulgaris,1.95 to 15.6 µg/mL
same,MIC,Bacillus cereus [11],1.95 to 15.6 µg/mL
same,MIC,Bacillus subtilis,1.95 to 15.6 µg/mL
same,MIC,Escherichia coli [12],1.95 to 15.6 µg/mL
COc1nc(Sc2ccc(F)cc2)nc(-c2ccc(C#N)cc2)n1,MIC,Staphylococcus aureus [17],3.12 µg/mL
CC1(C)c2ccccc2Oc2nc(Cl)nc(n2)OCc2cccc(n2)COc2nc(Cl)nc(n2)Oc2ccccc21,MIC,Escherichia coli [4],50 µg/mL
N=C(N)NCCCN(CCCNC(=N)N)c1nc(NCCC(c2ccccc2)c2ccccc2)nc(NCCC(c2ccccc2)c2ccccc2)n1,MIC,Staphylococcus aureus [18],2 µM
same,MIC,Staphylococcus aureus [19],2 µM
same,MIC,Staphylococcus aureus [20],2 µM
same,MIC,Pseudomonas aeruginosa [21],4 µM
same,MIC,Pseudomonas aeruginosa [22],4 µM
same,MIC,Enterococcus faecium [23],4 µM
Nc1nc(Nc2ccccc2)nc(Nc2nc(-c3ccc(Cl)c(Cl)c3)cs2)n1,MIC,Lacticaseibacillus casei,3.12 µg/mL
same,MIC,Bacillus cereus [15],3.12 µg/mL
N=C(N)NCCCN(CCCNC(=N)N)c1nc(NCc2cccc3ccccc23)nc(NCc2cccc3ccccc23)n1,MIC,Staphylococcus aureus [18],2 µM
same,MIC,Staphylococcus aureus [19],2 µM
same,MIC,Staphylococcus aureus [20],2 µM
same,MIC,Pseudomonas aeruginosa [21],8 µM
same,MIC,Pseudomonas aeruginosa [22],8 µM
same,MIC,Enterococcus faecium [23],2 µM

# Reference: ChEMBL document CHEMBL4321839, “Structure-activity relationships (SAR) of triazine derivatives: Promising antimicrobial agents” (Eur J Med Chem, 2020)
